Data on three compounds can be found in publication PMC5891627, “Binding Specificity of Two PBPs in the Yellow Peach Moth Conogethes punctiferalis (Guenée)” (Frontiers in Physiology, 2018).

By IC50 is commonly meant the concentration needed to halve the response being measured. What is called Kd is a measure of binding affinity in units of concentration.

The target of experiment [1] is CpunPBP2 (Conogethes punctiferalis, UniProt A0A1D6X8W8). Put plainly: Fluorescence displacement (competitive, 1-NPN) binding assay. Particulars: for IC50 / Kd / activity at 6000 µM: pH = 7.4; for IC50: 1-NPN 2 μM as fluorescent reporter, 2 μM protein, read-out: IC50; for Kd: calculated from IC50: KD = [IC50]/(1+[1-NPN]/K1-NPN), read-out: KD (μM), calculated dissociation constant; for binding affinity to CpunPBP2 (in words): ranking among the 24 tested ligands; for activity at 6000 µM: ratio of fluorescence intensity at the pheromone concentration of 6 mM to the initial fluorescence intensity, read-out: Int (%). The procedure: (§1) The fluorescence intensity was recorded on a FluoroMax-4 spectrophotometer (Horiba Scientific, USA) at room temperature using a 1 cm light path fluorimeter quartz cuvette. The fluorescent probe N-phenyl-1-naphthylamine (1-NPN) and all the tested chemicals were dissolved in HPLC purity methanol. The final concentration was prepared 1 mM. […] The fluorescence of 1-NPN was excited at 337 nm and emission spectra were recorded between […]. […] The GraphPad Prism 5 (GraphPad Software, Inc.) was used to estimate the K1−NPN (KD of complex protein /1-NPN) values by nonlinear regression for a unique site of binding. It was assumed that the proteins were 100% active, with a stoichiometry of 1:1 (protein:ligand) at saturation. […] In the equation, [1-NPN] is the free concentration of 1-NPN, and K1−NPN is the dissociation constant of the complex protein /1-NPN.

In experiment [2] the target is CpunPBP5 (Conogethes punctiferalis, UniProt A0A0M4FIS7). The experiment is described as above. Particulars: for IC50 / Kd / activity at 6000 µM: pH = 7.4; for IC50: 1-NPN 2 μM as fluorescent reporter, 2 μM protein, read-out: IC50; for Kd: calculated from IC50: KD = [IC50]/(1+[1-NPN]/K1-NPN), read-out: KD (μM), calculated dissociation constant; for binding affinity to CpunPBP5 (in words): ranking among the 24 tested ligands; for activity at 6000 µM: ratio of fluorescence intensity at the pheromone concentration of 6 mM to the initial fluorescence intensity, read-out: Int (%). How it is done: as §1

Experiment [3] concerns the target CpunPBP5-m4 (CpunPBP5-Arg120 mutant) (Conogethes punctiferalis, UniProt A0A0M4FIS7, R145K). Nature of the experiment: Fluorescence displacement binding assay of mutants. The procedure: (§2) The fluorescence intensity was recorded on a FluoroMax-4 spectrophotometer (Horiba Scientific, USA) at room temperature using a 1 cm light path fluorimeter quartz cuvette. The fluorescent probe N-phenyl-1-naphthylamine (1-NPN) and all the tested chemicals were dissolved in HPLC purity methanol. The final concentration was prepared 1 mM. To measure the affinity of florescent ligand 1-NPN to each protein, a 2 μM solution of the protein in 50 mM Tris-HCl, pH 7.4, was titrated with aliquots of 1 mM ligand in methanol to final concentrations of 1–8 μM. The fluorescence of 1-NPN was excited at 337 nm and emission spectra were recorded between […] and 450 nm. The affinity of other ligands was measured in competitive binding assays, using 1-NPN as the fluorescent reporter at 2 μM concentration and different concentrations of each ligands. The GraphPad Prism 5 (GraphPad Software, Inc.) was used to estimate the K1−NPN (KD of complex protein /1-NPN) values by nonlinear regression for a unique site of binding. It was assumed that the proteins were 100% active, with a stoichiometry of 1:1 (protein:ligand) at saturation. For other competitor ligands, the dissociation constants were calculated from the corresponding IC50 (concentrations of ligands halving the initial fluorescence value of 1-NPN) values using Microsoft Office Excel 2010, with the formula: KD = [IC50]/(1+[1-NPN]/K1−NPN). In the equation, [1-NPN] is the free concentration of 1-NPN, and K1−NPN is the dissociation constant of the complex protein /1-NPN.
(§3) Four mutants of CpunPBP2 and four mutants of CpunPBP5 were developed using the QuikChange Lightning Site-Directed Mutagenesis Kit (Stratagene, USA). The mutational primers were designed manually. Mutation sites are underlined in Table S2. The CpunPBP2/pGEM-T Easy construct was used as a template. The PCR conditions were 95°C for 5 min, followed by 30 cycles of 95°C for 30 s, 58°C for 30 s and 68°C for 1 min, and final extension at 72°C for 10 min. The correct insertion of mutation was subcloned into pGEM-T Easy vector (TransGen, Beijing, China). The expression system and fluorescence binding assay were conducted as mentioned for wild type proteins.
(§4) Supplementary file Image3.jpg: Figure S3 SDS-PAGE analyses of purified CpunPBP2 and CpunPBP5 with their mutants. M: marker protein. (A)1:CpunPBP2 original protein. (A)2: CpunPBP2-Phe9 mutant (CpunPBP2-m1). (A)3: CpunPBP2-Phe33 mutant (CpunPBP2-m2). (A)4: CpunPBP2-Ser53 mutant (CpunPBP2-m3). (A)5: CpunPBP2-Phe115 mutant (CpunPBP2-m4). (B)1:CpunPBP5 original protein. (B)2: CpunPBP5-Ser9 mutant (CpunPBP5-m1). (B)3: CpunPBP5-Phe12 mutant (CpunPBP5-m2). (B)4: CpunPBP5-Val115 mutant (CpunPBP5-m3). (B)5: CpunPBP5-Arg120 mutant (CpunPBP5-m4). Click here for additional data file.

For experiment [4], the target named is CpunPBP2-m1 (CpunPBP2-Phe9 mutant) (Conogethes punctiferalis, UniProt A0A1D6X8W8, F33Y). Nature of the experiment: Fluorescence displacement binding assay of mutants. To be noted: for Kd: read-out: KD, calculated dissociation constant. How it is done:
as §2, §3, §4

Experiment [5] has as its target CpunPBP5-m3 (CpunPBP5-Val115 mutant) (Conogethes punctiferalis, UniProt A0A0M4FIS7, V140A). Put plainly: Fluorescence displacement binding assay of mutants. The procedure: as §2, §3, §4
Experiment [6] deals with CpunPBP5-m1 (CpunPBP5-Ser9 mutant) (Conogethes punctiferalis, UniProt A0A0M4FIS7, S34T). Put plainly: Fluorescence displacement binding assay of mutants. The procedure:
as §2, §3, §4

In experiment [7] the target is CpunPBP2-m4 (CpunPBP2-Phe115 mutant) (Conogethes punctiferalis, UniProt A0A1D6X8W8, F139Y). Put plainly: Fluorescence displacement binding assay of mutants. Particulars: for Kd: read-out: KD, calculated dissociation constant. The procedure: as §2, §3, §4
The target in experiment [8] is CpunPBP2-m2 (CpunPBP2-Phe33 mutant) (Conogethes punctiferalis, UniProt A0A1D6X8W8, F57Y). Nature of the experiment: Fluorescence displacement binding assay of mutants. Particulars: for Kd: read-out: KD, calculated dissociation constant. How it is done:
as §2, §3, §4

In experiment [9] the target is CpunPBP5-m2 (CpunPBP5-Phe12 mutant) (Conogethes punctiferalis, UniProt A0A0M4FIS7, F37Y). Nature of the experiment: Fluorescence displacement binding assay of mutants. How it is done: as §2, §3, §4
Experiment [10] deals with CpunPBP2-m3 (CpunPBP2-Ser53 mutant) (Conogethes punctiferalis, UniProt A0A1D6X8W8, S77Y). Nature of the experiment: Fluorescence displacement binding assay of mutants. Particulars: for Kd: read-out: KD, calculated dissociation constant. The procedure:
as §2, §3, §4

For experiment [11], the system named is yellow peach moth males. Set-up: method as in Liu et al., [1994]. Particulars: ref Liu et al., [1994]; cited from earlier work.

Sequence of CpunPBP2-m3 (CpunPBP2-Ser53 mutant) (A0A1D6X8W8 entry or part of it S77Y): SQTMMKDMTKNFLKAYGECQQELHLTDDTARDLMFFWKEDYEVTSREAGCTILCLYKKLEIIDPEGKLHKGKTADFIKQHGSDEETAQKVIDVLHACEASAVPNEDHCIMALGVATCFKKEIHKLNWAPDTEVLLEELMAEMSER
Sequence of CpunPBP5-m3 (CpunPBP5-Val115 mutant) (A0A0M4FIS7 entry or part of it V140A): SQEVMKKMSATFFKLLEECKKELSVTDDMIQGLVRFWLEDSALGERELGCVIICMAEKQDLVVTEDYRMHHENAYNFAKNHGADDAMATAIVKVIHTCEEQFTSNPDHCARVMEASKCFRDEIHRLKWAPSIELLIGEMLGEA
Sequence of CpunPBP5-m2 (CpunPBP5-Phe12 mutant) (A0A0M4FIS7 entry or part of it F37Y): as the sequence (A0A0M4FIS7 entry or part of it V140A) above, with F12Y, A115V counted along it
Sequence of CpunPBP5-m1 (CpunPBP5-Ser9 mutant) (A0A0M4FIS7 entry or part of it S34T): as the sequence (A0A0M4FIS7 entry or part of it V140A) above, with S9T, A115V counted along it
Sequence of CpunPBP2 (A0A1D6X8W8 entry or part of it): as the sequence (A0A1D6X8W8 entry or part of it S77Y) above, with Y56S counted along it
Sequence of CpunPBP2-m4 (CpunPBP2-Phe115 mutant) (A0A1D6X8W8 entry or part of it F139Y): as the sequence (A0A1D6X8W8 entry or part of it S77Y) above, with Y56S, F118Y counted along it
Sequence of CpunPBP5 (A0A0M4FIS7 entry or part of it): as the sequence (A0A0M4FIS7 entry or part of it V140A) above, with A115V counted along it
Sequence of CpunPBP5-m4 (CpunPBP5-Arg120 mutant) (A0A0M4FIS7 entry or part of it R145K): as the sequence (A0A0M4FIS7 entry or part of it V140A) above, with A115V, R120K counted along it
Sequence of CpunPBP2-m2 (CpunPBP2-Phe33 mutant) (A0A1D6X8W8 entry or part of it F57Y): as the sequence (A0A1D6X8W8 entry or part of it S77Y) above, with F36Y, Y56S counted along it
Sequence of CpunPBP2-m1 (CpunPBP2-Phe9 mutant) (A0A1D6X8W8 entry or part of it F33Y): as the sequence (A0A1D6X8W8 entry or part of it S77Y) above, with F12Y, Y56S counted along it

With `CCCCC/C=C/CCCCCCCCC=O` [E10-16:Ald, (E)-10-hexadecenal], the IC50 in experiment [1] turned out to be 0.94 ± 0.03 µM; in experiment [2], 1.33 ± 0.06 µM; in experiment [3], 2.61 ± 0.78 µM; in experiment [4], 0.8 ± 0.02 µM; in experiment [5] it was 3.64 ± 0.1 µM; in experiment [6], 1.63 ± 0.01 µM. The half-maximal inhibitory concentration (IC50) was 30 ± 17.6 µM in experiment [7], 1.18 ± 0.2 µM in [8], 2.73 ± 0.33 µM in experiment [9] and 1.04 ± 0.13 µM in experiment [10]. Moreover, the Kd is 0.4 ± 0.01 µM in experiment [1]; 0.6 ± 0.02 µM in experiment [2]; 1.06 ± 0.32 µM in [3]; 0.22 ± 0.01 µM in experiment [4]; 1.85 ± 0.16 µM in experiment [5]; 0.72 µM in experiment [6]. For the same compound, the Kd in experiment [7] was 19.9 ± 11.7 µM; in experiment [8], 0.54 ± 0.09 µM; in [9] it was 1.49 ± 0.18 µM; in experiment [10], 0.11 ± 0.01 µM. In addition, the “binding affinity to CpunPBP2 (in words)” value in experiment [1] is “highest binding ability”. Further, the activity at 6000 µM in experiment [1] was found to be 39.5 ± 0.83%; in experiment [2] it was 40 ± 1.53%. Also, in experiment [2], the “binding affinity to CpunPBP5 (in words)” value is recorded as “highest binding ability”. The “binding affinity of mutant compared with CpunPBP5 (in words)” value in [5] (mutant CpunPBP5-m3 vs wild type) is on record as “decreased the most”.

On to `CCCCCCCCCCCCCCCC=O` [Hexadecanal], for which the “attraction of males in field trials” value in experiment [11] is listed as “do not attract males”. In addition, in experiment [1], the IC50 worked out at 1.84 ± 0.02 µM, the Kd was 1.07 ± 0.01 µM and the activity at 6000 µM was 34.03 ± 0.34%. For the same compound, in experiment [2], the IC50 was 4.51 ± 0.08 µM, the Kd is 3.65 ± 0.07 µM and the activity at 6000 µM turned out to be 46.83 ± 0.18%.

On to `CCCCC/C=C\CCCCCCCCC=O` [Z10-16:Ald, (Z)-10-hexadecenal], for which, in [11], the “attraction of males in field trials” value is “do not attract males”. Moreover, the IC50 in experiment [1] turned out to be 0.98 ± 0.09 µM; in experiment [2] it was 0.97 ± 0.02 µM; in [3] it was 2.57 ± 0.55 µM; in [4], 0.76 ± 0.01 µM; in [5] it was 1.62 ± 0.04 µM; in experiment [6], 1.41 ± 0.02 µM. The IC50 was determined as 15.4 ± 3.18 µM in [7], 0.79 ± 0.03 µM in experiment [8], 1.66 ± 0.03 µM in experiment [9] and 0.92 ± 0.05 µM in experiment [10]. For the same compound, the Kd is 0.42 ± 0.04 µM in experiment [1]; 0.36 ± 0.01 µM in [2]; 1.04 ± 0.22 µM in [3]; 0.21 µM in experiment [4]; 0.82 ± 0.02 µM in [5]; 0.72 ± 0.01 µM in experiment [6]. In addition, the Kd in [7] was 10.2 ± 2.11 µM; in experiment [8], 0.36 ± 0.01 µM; in [9], 0.9 ± 0.02 µM; in [10], 0.1 µM. Moreover, in experiment [1], the “binding affinity to CpunPBP2 (in words)” value is reported as “highest binding ability”. Besides, the activity at 6000 µM in experiment [1] came to 42.5 ± 1.88%; in experiment [2] it was 40.6 ± 1.39%. Moreover, the “binding affinity to CpunPBP5 (in words)” value in experiment [2] was “highest binding ability”. Further, the “binding capacity of mutant compared with CpunPBP5 (in words)” value in experiment [3] (mutant CpunPBP5-m4 vs wild type) is on record as “decreased considerably”.
